Consider 2 compounds from patent US20100137315A1, “Sphingosine Kinase Inhibitors and Methods of Their Use” (APOGEE BIOTECHNOLOGY CORPORATION, priority 2005, published 2010).

For data set [1], the target named is P38 MAP kinase 1 (Homo sapiens, UniProt Q16539). The data set can be described thus: Kinase selectivity panel. It counts as biochemical. The note with it: read-out: percent of control activity of P38 MAP kinase 1. As to the method: (§1) A common problem with previous attempts to develop protein kinase inhibitors is the lack of selectivity toward the target kinase since the majority of these compounds interact with nucleotide-binding domains that are highly conserved among kinases. To determine if compound of this invention are non-selective kinase inhibitors, the effects of the SK inhibitor, Compound 73, on a diverse panel of 20 purified kinases was determined. The compound was tested at a single concentration of 50 μM.

Data set [2] deals with Protein kinase C ε (Homo sapiens, UniProt Q02156). The data set can be described thus: Kinase selectivity panel. The format is biochemical. The note with it: read-out: percent of control activity of Protein kinase C ε. As to the method:
as §1

Data set [3] addresses CDK2/cyclinE (Homo sapiens, UniProt P24941). In words: Kinase selectivity panel. The format is biochemical. The note with it: read-out: percent of control activity of CDK2/cyclinE. As to the method: as §1
For data set [4], the target named is PKBγ (Homo sapiens, UniProt Q9Y243). The data set can be described thus: Kinase selectivity panel. The note with it: read-out: percent of control activity of PKBγ. The format is biochemical. As to the method: as §1
The subject of data set [5] is MEK kinase 1. In words: Kinase selectivity panel. It counts as biochemical. The conditions noted are these: 50 μM. As to the method: as §1
Data set [6] has as its target Aurora-A (Homo sapiens, UniProt O14965). In words: Kinase selectivity panel. It counts as biochemical. The conditions noted are these: read-out: percent of control activity of Aurora-A. As to the method: as §1
Data set [7] concerns the target Fyn (Homo sapiens, UniProt P06241). In words: Kinase selectivity panel. The format is biochemical. The note with it: read-out: percent of control activity of Fyn. As to the method: as §1
For data set [8], the target named is cSrc (Homo sapiens, UniProt P12931). The data set can be described thus: Kinase selectivity panel. It counts as biochemical. The note with it: read-out: percent of control activity of cSrc. As to the method: as §1
Data set [9] deals with EFGR (Homo sapiens, UniProt P00533). The data set can be described thus: Kinase selectivity panel. It counts as biochemical. The conditions noted are these: read-out: percent of control activity of EFGR. As to the method:
as §1

For data set [10], the target named is PKA (Homo sapiens, UniProt P17612). In words: Kinase selectivity panel. It counts as biochemical. The conditions noted are these: read-out: percent of control activity of PKA. As to the method: as §1
Data set [11] has as its target Protein kinase C α (Homo sapiens, UniProt P17252). The data set can be described thus: Kinase selectivity panel. The note with it: read-out: percent of control activity of Protein kinase C α. The format is biochemical. As to the method: as §1
For data set [12], the target named is Abl (Homo sapiens, UniProt P00519). The data set can be described thus: Kinase selectivity panel. It counts as biochemical. The conditions noted are these: read-out: percent of control activity of Abl. As to the method: as §1
Data set [13] addresses IKKα (Homo sapiens, UniProt O15111). In words: Kinase selectivity panel. It counts as biochemical. The conditions noted are these: read-out: percent of control activity of IKKα. As to the method:
as §1

The target of data set [14] is PDK1 (Homo sapiens, UniProt O15530). The data set can be described thus: Kinase selectivity panel. It counts as biochemical. The conditions noted are these: read-out: percent of control activity of PDK1. As to the method:
as §1

For data set [15], the target named is P38 MAP kinase 2 (Homo sapiens, UniProt Q15759). The data set can be described thus: Kinase selectivity panel. It counts as biochemical. The conditions noted are these: read-out: percent of control activity of P38 MAP kinase 2. As to the method:
as §1

Data set [16] can be described thus: Oral pharmacokinetics in mice. The format is in vivo. The conditions noted are these: mouse, whole blood; for AUC(0-inf): 100 mg/kg oral gavage in PEG400, female Swiss-Webster mice, blood. As to the method:
Oral pharmacokinetic studies were performed on Compound 8. The compound was dissolved in PEG400 and administered to female Swiss-Webster mice at a dose of 100 mg/kg by oral gavage. Mice were anesthetized and blood was removed via cardiac puncture at 5 minutes, 30 minutes, 1, 2, and 8 hours. Concentrations of the test compounds were determined using liquid-liquid extraction, appropriate internal standards and reverse phase HPLC with UV detection. Control blood samples were run to identify compound-specific peaks. Pharmacokinetic parameters were calculated using the WINNONLIN analysis software package (Pharsight). Non-compartmental and compartmental models were tested, with the results shown in Table 8 derived from the best fit equations.

In data set [17] the test system is mice. The data set can be described thus: Chronic DSS-colitis model of IBD (35-day). The format is in vivo, mouse. As to the method:
FIG. 8. Effects of Compound 8 on the […] (DAI) in the chronic DSS-colitis model. Mice received 2 cycles (7 days per cycle) of DSS (1.5% cycle 1 and 1% cycle 2), 2 cycles of normal drinking water and were randomized by DAI on Day 28 into groups of 8 mice. The mice were then treated as follows: No DSS (▪)— normal drinking water and orally dosed with PEG400 every day for 7 days (water control); DSS alone (▴)— drinking water containing 1.5% DSS and orally dosed with PEG daily for 7 days; DSS+Compound 8 (▾)-drinking water containing 1.5% DSS and orally dosed with Compound 8 (50 mg/kg) every day for 7 days; DSS+Dipentum (♦)— drinking water containing 1.5% DSS and orally dosed with Dipentum (50 mg/kg). *p<0.001 versus No DSS group.
FIG. 9. Effects of Compound 8 on S1P levels in the colons of the animals in the chronic DSS-colitis model. Colon samples from mice described in FIG. 8 were extracted and assayed for the levels of S1P by LC/MS/MS. Values represent the mean±sd for 8 samples per group; * p<0.05 versus No DSS group.
A 35-day model of IBD was used to evaluate the effectiveness of the SK inhibitor in mice that experience multiple cycles of DSS-induced inflammation. This chronic model is similar to the acute model, except that the DSS concentration in the drinking water is lower and animals receive periodic exposure to DSS (DSS on days 1-7, water on Days 8-13, DSS on day 14-21, water on Days 22-27 and then DSS until the completion of the study on Day 35). In these experiments, treatment of the mice with an SK inhibitor or Dipentum began on Day 28 and continued daily until the completion of the study. The DAI index was monitored every other day until Day 28 and then daily until Day 35. Animals were sacrificed on Day 35, and changes in the colon length and cytokine profiles were measured.
As a final measure of the effects of the SK inhibitors in this chronic model, S1P levels were assayed in the colons of the DSS-treated animals using an LC-MS/MS method. […] Ratios of analyte to internal standard for each sphingolipid were determined. […]

[18] abbreviates: female, Swiss-Webster, 100 mg/kg oral gavage, mice.

SMILES strings stand for the structures. Read-outs that look alike come from different tables or passages of the source.

PKBγ, sequence (Q9Y243 whole entry, species assumed): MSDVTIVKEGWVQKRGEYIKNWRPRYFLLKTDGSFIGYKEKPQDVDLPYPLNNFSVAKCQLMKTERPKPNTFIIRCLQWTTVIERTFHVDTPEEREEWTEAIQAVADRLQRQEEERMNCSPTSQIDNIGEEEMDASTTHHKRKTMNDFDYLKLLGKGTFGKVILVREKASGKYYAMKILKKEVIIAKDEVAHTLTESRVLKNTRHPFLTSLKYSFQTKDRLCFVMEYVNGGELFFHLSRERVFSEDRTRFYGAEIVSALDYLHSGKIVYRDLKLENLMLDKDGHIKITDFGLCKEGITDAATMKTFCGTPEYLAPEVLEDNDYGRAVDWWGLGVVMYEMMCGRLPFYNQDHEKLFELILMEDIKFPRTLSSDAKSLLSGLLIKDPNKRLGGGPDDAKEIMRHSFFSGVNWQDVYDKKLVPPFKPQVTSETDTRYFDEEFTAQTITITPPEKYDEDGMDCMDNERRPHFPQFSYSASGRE
PDK1, sequence (O15530 whole entry): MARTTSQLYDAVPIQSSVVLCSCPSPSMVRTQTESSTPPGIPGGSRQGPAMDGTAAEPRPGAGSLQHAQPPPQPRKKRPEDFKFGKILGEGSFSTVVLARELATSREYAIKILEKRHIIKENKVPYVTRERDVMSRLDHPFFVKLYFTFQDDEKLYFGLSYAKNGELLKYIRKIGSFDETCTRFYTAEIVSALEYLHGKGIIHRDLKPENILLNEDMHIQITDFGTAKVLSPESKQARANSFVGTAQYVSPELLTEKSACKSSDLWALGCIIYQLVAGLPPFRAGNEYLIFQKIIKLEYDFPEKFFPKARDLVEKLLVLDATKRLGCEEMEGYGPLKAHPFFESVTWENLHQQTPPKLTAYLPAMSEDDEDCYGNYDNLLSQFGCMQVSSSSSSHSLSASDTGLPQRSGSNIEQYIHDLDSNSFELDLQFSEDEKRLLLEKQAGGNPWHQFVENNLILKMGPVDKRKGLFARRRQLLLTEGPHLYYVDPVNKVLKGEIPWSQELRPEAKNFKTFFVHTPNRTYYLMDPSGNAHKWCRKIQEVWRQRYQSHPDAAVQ
Protein kinase C ε, sequence (Q02156 whole entry): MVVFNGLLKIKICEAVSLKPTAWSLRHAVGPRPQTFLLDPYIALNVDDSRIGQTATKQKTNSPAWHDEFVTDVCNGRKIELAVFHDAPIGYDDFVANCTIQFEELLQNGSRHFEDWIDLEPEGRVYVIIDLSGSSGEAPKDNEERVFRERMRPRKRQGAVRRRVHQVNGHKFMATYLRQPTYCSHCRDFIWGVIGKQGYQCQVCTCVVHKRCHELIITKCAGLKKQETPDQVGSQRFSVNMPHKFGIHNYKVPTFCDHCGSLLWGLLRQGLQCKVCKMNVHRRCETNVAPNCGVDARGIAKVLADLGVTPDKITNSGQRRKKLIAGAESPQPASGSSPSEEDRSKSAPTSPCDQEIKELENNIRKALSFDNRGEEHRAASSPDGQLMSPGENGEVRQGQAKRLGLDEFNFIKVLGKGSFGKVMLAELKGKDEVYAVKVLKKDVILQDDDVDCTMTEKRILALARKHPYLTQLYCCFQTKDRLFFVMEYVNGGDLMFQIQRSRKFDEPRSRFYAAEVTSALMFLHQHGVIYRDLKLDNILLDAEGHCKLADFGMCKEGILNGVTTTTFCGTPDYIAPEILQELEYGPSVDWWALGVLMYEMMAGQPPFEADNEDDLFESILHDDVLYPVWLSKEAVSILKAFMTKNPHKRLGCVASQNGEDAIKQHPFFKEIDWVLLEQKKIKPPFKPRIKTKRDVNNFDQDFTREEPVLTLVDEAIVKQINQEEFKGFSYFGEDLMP
P38 MAP kinase 2, sequence (Q15759 whole entry): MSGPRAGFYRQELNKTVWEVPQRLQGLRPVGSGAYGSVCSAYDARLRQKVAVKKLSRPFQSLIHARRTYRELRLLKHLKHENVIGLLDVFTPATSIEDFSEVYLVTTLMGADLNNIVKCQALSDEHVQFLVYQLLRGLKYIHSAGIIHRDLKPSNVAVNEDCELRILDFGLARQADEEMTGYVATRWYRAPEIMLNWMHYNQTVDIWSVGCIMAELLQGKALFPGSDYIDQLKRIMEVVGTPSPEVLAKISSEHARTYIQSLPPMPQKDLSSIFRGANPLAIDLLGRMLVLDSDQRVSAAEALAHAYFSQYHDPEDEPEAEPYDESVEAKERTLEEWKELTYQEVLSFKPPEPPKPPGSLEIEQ
Fyn, sequence (P06241 whole entry, species assumed): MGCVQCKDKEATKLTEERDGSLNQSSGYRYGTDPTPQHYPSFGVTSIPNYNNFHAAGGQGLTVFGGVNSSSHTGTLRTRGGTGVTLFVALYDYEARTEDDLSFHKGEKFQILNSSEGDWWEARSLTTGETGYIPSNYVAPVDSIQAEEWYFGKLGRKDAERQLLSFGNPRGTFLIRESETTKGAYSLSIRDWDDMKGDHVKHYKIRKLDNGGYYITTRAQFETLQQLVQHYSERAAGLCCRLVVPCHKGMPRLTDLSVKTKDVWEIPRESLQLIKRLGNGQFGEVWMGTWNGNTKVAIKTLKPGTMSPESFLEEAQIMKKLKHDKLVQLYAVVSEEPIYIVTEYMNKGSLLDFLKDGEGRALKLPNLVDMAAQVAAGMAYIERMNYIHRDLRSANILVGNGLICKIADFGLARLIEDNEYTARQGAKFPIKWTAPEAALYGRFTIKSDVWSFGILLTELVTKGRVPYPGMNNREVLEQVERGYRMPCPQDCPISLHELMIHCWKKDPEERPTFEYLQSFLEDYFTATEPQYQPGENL
cSrc, sequence (P12931 whole entry, species assumed): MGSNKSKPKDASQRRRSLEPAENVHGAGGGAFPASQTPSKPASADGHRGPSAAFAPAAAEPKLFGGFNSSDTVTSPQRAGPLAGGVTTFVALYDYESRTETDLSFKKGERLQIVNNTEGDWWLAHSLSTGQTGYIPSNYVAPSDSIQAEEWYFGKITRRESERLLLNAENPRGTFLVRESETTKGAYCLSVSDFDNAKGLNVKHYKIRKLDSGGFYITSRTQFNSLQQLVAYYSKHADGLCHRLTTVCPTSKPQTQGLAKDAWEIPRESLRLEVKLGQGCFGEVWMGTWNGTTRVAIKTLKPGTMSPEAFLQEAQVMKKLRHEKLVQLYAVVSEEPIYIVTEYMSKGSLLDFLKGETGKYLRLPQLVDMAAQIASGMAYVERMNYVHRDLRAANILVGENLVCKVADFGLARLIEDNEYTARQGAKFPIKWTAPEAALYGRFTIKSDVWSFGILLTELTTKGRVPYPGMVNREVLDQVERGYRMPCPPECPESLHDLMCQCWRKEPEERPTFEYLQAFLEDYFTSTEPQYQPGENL
IKKα, sequence (O15111 whole entry, species assumed): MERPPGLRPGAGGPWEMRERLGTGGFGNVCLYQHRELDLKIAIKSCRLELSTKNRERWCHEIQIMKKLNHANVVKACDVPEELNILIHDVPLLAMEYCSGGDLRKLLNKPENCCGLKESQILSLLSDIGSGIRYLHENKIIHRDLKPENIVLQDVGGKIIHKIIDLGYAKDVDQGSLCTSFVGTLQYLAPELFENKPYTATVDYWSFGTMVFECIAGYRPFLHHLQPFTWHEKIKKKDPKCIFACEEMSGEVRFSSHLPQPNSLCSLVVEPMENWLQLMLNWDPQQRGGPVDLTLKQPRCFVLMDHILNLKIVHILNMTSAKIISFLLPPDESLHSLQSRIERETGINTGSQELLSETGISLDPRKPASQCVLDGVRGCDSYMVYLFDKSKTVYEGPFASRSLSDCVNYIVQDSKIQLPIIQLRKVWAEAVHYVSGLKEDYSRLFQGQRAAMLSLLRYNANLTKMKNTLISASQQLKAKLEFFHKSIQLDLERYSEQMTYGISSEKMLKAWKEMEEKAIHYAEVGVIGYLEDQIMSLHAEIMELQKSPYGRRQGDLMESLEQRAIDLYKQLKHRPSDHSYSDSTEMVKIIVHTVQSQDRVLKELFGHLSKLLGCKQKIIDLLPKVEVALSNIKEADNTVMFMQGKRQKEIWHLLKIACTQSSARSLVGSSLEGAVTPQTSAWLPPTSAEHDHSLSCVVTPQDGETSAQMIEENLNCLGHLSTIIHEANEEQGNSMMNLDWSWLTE
Aurora-A, sequence (O14965 whole entry): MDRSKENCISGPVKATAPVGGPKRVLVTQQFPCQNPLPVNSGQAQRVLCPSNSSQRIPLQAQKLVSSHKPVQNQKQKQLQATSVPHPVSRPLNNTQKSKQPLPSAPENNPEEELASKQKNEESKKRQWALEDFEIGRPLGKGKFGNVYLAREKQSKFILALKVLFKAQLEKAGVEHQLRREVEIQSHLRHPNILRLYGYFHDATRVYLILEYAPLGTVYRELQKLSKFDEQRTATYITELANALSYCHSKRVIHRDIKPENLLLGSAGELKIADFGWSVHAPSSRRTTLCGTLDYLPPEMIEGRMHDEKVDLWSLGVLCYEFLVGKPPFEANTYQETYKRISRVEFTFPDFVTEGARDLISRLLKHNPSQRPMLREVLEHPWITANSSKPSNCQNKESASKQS
P38 MAP kinase 1, sequence (Q16539 whole entry, the tested form may be a part): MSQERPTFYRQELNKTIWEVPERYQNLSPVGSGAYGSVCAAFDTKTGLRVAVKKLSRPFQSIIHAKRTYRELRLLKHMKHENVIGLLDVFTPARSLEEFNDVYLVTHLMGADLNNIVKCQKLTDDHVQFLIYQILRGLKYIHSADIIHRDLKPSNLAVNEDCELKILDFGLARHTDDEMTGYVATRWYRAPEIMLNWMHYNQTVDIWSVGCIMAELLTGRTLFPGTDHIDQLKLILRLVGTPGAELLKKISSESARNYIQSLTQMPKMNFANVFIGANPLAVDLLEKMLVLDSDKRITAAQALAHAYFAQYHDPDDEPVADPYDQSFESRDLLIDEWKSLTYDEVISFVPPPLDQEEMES

Take `Clc1ccc(-c2csc(NCc3ccccc3)n2)cc1` [Compound 73, Benzyl-[4-(4-chloro-phenyl)-thiazol-2-yl]-amine]: the remaining activity at 50 µM in [1] turned out to be 88 ± 1%; in [2] it was 91 ± 2%; in [3], 102 ± 7%; in data set [4] it was 100 ± 10%; in data set [6], 100%; in [7], 102%. The remaining activity at 50 µM in data set [8] was 119 ± 6%; in [9] it was 99 ± 9%; in data set [10], 94 ± 4%; in data set [11], 92 ± 1%; in [12], 100 ± 1%; in [13] it was 152 ± 7%. In addition, the remaining activity at 50 µM came out at 98 ± 6% in data set [14] and 101% in data set [15]. In addition, in data set [5], the “percent of control activity of MEK kinase 1” value was 104 ± 3%.

On to `CCCC(=O)Oc1ccc(C=CC(=O)Nc2nc(-c3ccc(Cl)cc3)cs2)cc1OC` [Compound 8, Butyric acid 4-{2-[4-(4-chloro-phenyl)-thiazol-2-ylcarbamoyl]-vinyl}-2-methoxy-phenyl ester], for which, in data set [16] (setting [18]), the highest level (Cmax) was 34.4 µM, the Tmax worked out at 1 h and the half-life is 31.9 h. The AUC(0-inf) in [16] (read-out: AUC0 → ∞ (μM*h)) was found to be 1500 µM·h. Besides, the AUC(0-inf) in data set [16] (read-out: AUC0 → ∞ (μg*h/mL)) is 475 µg·h/mL. The colon length in [17] (50 mg/kg oral daily Days 28-35, Day 35) is 5.8±0.1 cm. The “increase in DAI during third DSS exposure” value in [17] (50 mg/kg oral daily Days 28-35, P<0.001 on Day 35) is reported as “significantly suppressed”. The “S1P levels in colon (LC-MS/MS)” value in data set [17] (oral 50 mg/kg daily, 7 days prior to sacrifice) is “significant reductions”.
